Measured values from publication PMC6792352, “Limited Chemical Structural Diversity Found to Modulate Thyroid Hormone Receptor in the Tox21 Chemical Library” (Environmental Health Perspectives, 2019).
Counter-ions that a name gives are not always drawn.

Assay: in vitro
Settings: rat, gh3-tre-luc cells, AC50 (uM) modified / 1000

SMILES	CC50 at 24 h [µM]
O=P(O)(O)C(Sc1ccc(Cl)cc1)P(=O)(O)O [Tiludronate disodium]	> 50
CC(=O)Nc1cccc(O)c1 [3-Acetamidophenol]	> 90
COc1cc(S(=O)(=O)O)c(C)cc1N=Nc1c(O)ccc2cc(S(=O)(=O)O)ccc12 [Allura Red C.I.16035]	37.7
CN(C)CCN1C(=O)c2ccccc2N(C)c2ccccc21 [Dibenzepin hydrochloride]	> 50
CCN(CC)CCOC(=O)c1cccnc1 [Nicametate citrate]	> 50
NNC(=O)OCc1ccccc1 [Hydrazinecarboxylic acid, phenylmethyl ester]	> 90
CO[C@@]1(NC(=O)CSC(F)F)C(=O)N2C(C(=O)O)=C(CSc3nnnn3CCO)CO[C@@H]21 [Flomoxef]	> 50
CC(C)=CC(=O)O [3,3-Dimethylacrylic acid]	> 90
CO/N=C(\C(=O)N[C@@H]1C(=O)N2C(C(=O)O)=C(CSc3cnns3)CS[C@H]12)c1csc(N)n1 [Cefuzonam hydrochloride]	> 50
N=C1NC(=O)N2CC12 (stereo not shown) [Imexon]	> 50
CN1[C@@H]2CC[C@H]1CC(NC(=O)n1c(=O)[nH]c3ccccc31)C2 (stereo partly shown) [Itasetron]	> 50
OC(CN1CCC(Cc2ccc(F)cc2)CC1)c1ccc(Cl)cc1 (stereo not shown) [Eliprodil]	> 50
O=C(O)COc1ccc(Cl)cc1Cl [2,4-D, Dimethylamine salt]	> 90
Nc1cc(C(=O)O)c(O)c(S(=O)(=O)O)c1 [5-Amino-3-sulfosalicylic acid]	> 90
N=C(N/N=C/c1ccc(Cl)cc1)N/N=C/c1ccc(Cl)cc1 [Robenidine]	46.1
Nc1n[nH]c(N)n1 [Guanazole]	> 90
O=C(O)CCSSCCC(=O)O [3,3'-Dithiodipropionic acid]	> 90
NCCc1cc[nH]n1 [Betazole hydrochloride]	> 20
CC/C=C\CCOC(=O)CC [(3Z)-Hex-3-en-1-yl propanoate]	> 90
CCCCCCCCCCCCCCCC(=O)OC [Methyl hexadecanoate]	> 30
Cc1ccc2c(ccc3ccccc32)c1 [2-Methylphenanthrene]	> 90
CS(=O)(=O)c1ccc(C2=C(c3ccccc3)C(=O)OC2)cc1 [Rofecoxib]	> 50
CCC/C=C(/C=O)CC [2-Ethyl-2-hexenal]	> 90
CCCCCCCC(=O)Oc1c(Br)cc(C#N)cc1Br [Bromoxynil octanoate]	> 90
COC(=O)Nc1nc2ccc(C(=O)c3cccs3)cc2[nH]1 [Nocodazole]	0.337
COC(=O)c1ccc(OC)cc1 [Methyl 4-methoxybenzoate]	> 90

SMILES	CC50 at 24 h [µM]
CCOC(CN1CCN(CC(C)C(=O)c2ccccc2)CC1)c1ccccc1 (stereo not shown) [Eprazinone dihydrochloride]	> 50
CCCC[C@H](CC)COC(=O)/C=C/c1ccc(OC)cc1 [Octinoxate]	> 90
COC(=O)c1ccc(C(=O)OC)cc1 [Dimethyl terephthalate]	> 90
O=c1[nH]cnc2nc[nH]c12 [Hypoxanthine]	> 50
OCC1(CO)COCOC1 [1,3-Dioxane-5,5-diyldimethanol]	> 90
COc1ccc2c3c1O[C@H]1[C@@H](O)C=C[C@H]4[C@@H](C2)N(C)CC[C@@]341 [Codeine hydrochloride]	> 90
COc1cc(-c2ccc(N=C=O)c(OC)c2)ccc1N=C=O [3,3'-Dimethoxybenzidine-4,4'-diisocyanate]	> 50
O=c1cc(-c2ccccc2)oc2cc(O)cc(O)c12 [Chrysin]	62.4
CN[C@@H]1[C@H](O)[C@H](NC)[C@H]2O[C@@]3(O)C(=O)C[C@@H](C)O[C@H]3O[C@@H]2[C@H]1O [Spectinomycin dihydrochloride]	> 20
NC(=O)/N=N/C(N)=O [Azodicarbonamide]	> 90
C=CS(=O)(=O)O [Sodium ethenesulfonate]	> 50
O=C(O)C(O)[C@H](O)[C@@H](O)[C@H](O)[C@H](O)CO (stereo partly drawn) [D-Gluco-heptonic acid, monosodium salt]	> 90
C[N+](C)(C)CC(O)CC(=O)[O-] (stereo not shown) [Carnitine hydrochloride]	> 50
Cc1ccc(S(=O)(=O)NC(=O)NC2CCCCC2)cc1 [Glycyclamide]	> 50
CC(=O)Oc1ccc2c3c1O[C@H]1[C@@H](OC(C)=O)C=C[C@H]4[C@@H](C2)N(C)CC[C@@]341 [(-)-Heroin hydrochloride]	> 100
CC1=Nc2ccc3ccccc3c2C1(C)C [1,1,2-Trimethyl-1H-benzo[e]indole]	> 90
Cc1[nH]c(=O)c(C#N)cc1-c1ccc2nccn2c1 [Olprinone hydrochloride]	> 50
Cc1nnc2n1-c1sc(Br)cc1C(c1ccccc1Cl)=NC2 [Brotizolam]	32.6
C/C=C1\[C@H]2C=C(C)C[C@]1(N)c1ccc(=O)[nH]c1C2 [Huperzine A]	> 50
CN(C)/C=N/c1c(I)cc(I)c(CCC(=O)O)c1I [Ipodate sodium]	> 50
CCCC[N+](C)(CCCC)CCCC [N,N-Dibutyl-N-methylbutan-1-aminium chloride]	> 90
CC(C)c1cccc(C(C)C)c1N [2,6-Diisopropylaniline]	> 90
CC(=O)Nc1ccc(S(=O)(=O)Nc2cc(C)on2)cc1 [N-Acetyl sulfamethoxazole]	> 50
CCCCC(=O)O[C@]1(C(=O)CO)[C@@H](C)C[C@H]2[C@@H]3CCC4=CC(=O)C=C[C@]4(C)[C@@]3(F)[C@@H](O)C[C@@]21C [Betamethasone valerate]	77.9
ClC(Cl)(Cl)c1ccc(C(Cl)(Cl)Cl)cc1 [1,4-Bis(trichloromethyl)benzene]	> 90
O=Cc1ccc(Cl)cc1 [4-Chlorobenzaldehyde]	> 90

SMILES	CC50 at 24 h [µM]
OC1CCCc2ccccc21 (stereo not shown) [1,2,3,4-Tetrahydronaphthalen-1-ol]	> 90
O=c1[nH]c(=O)c2ccccc2o1 [Carsalam]	> 50
O=c1[nH]c2ccccc2n1CCCN1CCC(n2c(=O)[nH]c3cc(Cl)ccc32)CC1 [Domperidone]	40.2
CCOc1ccc2c(c1)C(C)CC(C)(C)N2 (stereo not shown)	> 90
CNN [Methylhydrazine sulfate]	> 90
COC(=O)COc1ccc(Cl)cc1Cl [2,4-D-methyl]	> 90
c1ccc2occc2c1 [2,3-Benzofuran]	> 90
COc1cc(C=O)cc2c1[C@H](COC(N)=O)[C@]1(OC(C)=O)ON2C[C@H]2[C@@H]1N2C(C)=O [PharmaGSID_48166]	1.23
CC(C)(C)C(=O)/C=C/c1ccc(Cl)cc1 [1-(4-Chlorophenyl)-4,4-dimethylpent-1-en-3-one]	> 90
CCC(=O)O[C@H]1CC[C@H]2[C@@H]3CCc4cc(O)ccc4[C@H]3CC[C@]12C [beta-Estradiol 17-propionate]	26.8
O=Cc1ccc([N+](=O)[O-])cc1 [4-Nitrobenzaldehyde]	> 90
CN(C)Cc1ccccc1O [2-((Dimethylamino)methyl)phenol]	> 90
CCCCCCCCCCCCCCCCCC(=O)OCC(O)CO (stereo not shown) [Glycerol 1-monostearate]	> 50
C[N+](C)(CCOc1ccccc1)Cc1cccs1 [Dimethyl(2-phenoxyethyl)-2-thenylammonium iodide]	> 50
C[C@]12CCC(=O)C[C@@H]1CC[C@@H]1[C@@H]2CC[C@]2(C)C=CC[C@@H]12 [Androstenone]	> 50
CC[C@H](C)[C@H]1O[C@]2(C=C[C@@H]1C)C[C@@H]1C[C@@H](C/C=C(\C)[C@@H](O[C@H]3C[C@H](OC)[C@@H](O[C@H]4C[C@H](OC)[C@H](NC(C)=O)[C@H](C)O4)[C@H](C)O3)[C@@H](C)/C=C/C=C3\CO[C@@H]4[C@H](O)C(C)=C[C@@H](C(=O)O1)[C@]34O)O2 [Eprinomectin B1a]	7.24
CC(=O)c1cc(C(C)(C)C)cc2c1CCC2(C)C [1-(6-tert-Butyl-1,1-dimethyl-2,3-dihydro-1H-inden-4-yl)ethanone]	40.7
O=C(O)CN(CC(=O)O)Cc1cc2c(cc1O)Oc1cc(O)c(CN(CC(=O)O)CC(=O)O)cc1C21OC(=O)c2ccccc21 [Oftasceine]	> 50
COC(=O)/C=C/C(C)=C\C=C\C(C)=C\C=C\C=C(C)\C=C\C=C(C)\C=C\C(=O)O [Bixin]	> 90
CC1(C)CC(O)CC(C)(C)N1[O] [4-Hydroxy-2,2,6,6-tetramethylpiperidin-1-yl)oxidanyl]	> 90
c1ccc2c(c1)ccc1ncccc12 [Benzo(f)quinoline]	> 90
Brc1cc(Br)c(Oc2cc(Br)c(Br)cc2Br)cc1Br [2,2',4,4',5,5'-Hexabromodiphenyl ether]	> 50
CC(C)=CC1C(C(=O)OC(C#N)c2cccc(Oc3ccccc3)c2)C1(C)C (stereo not shown) [Cyphenothrin]	> 90
C=CC(=O)OCCCCOC(=O)C=C [1,4-Butanediol diacrylate]	17.5
CC/C=C\CCCCCCCCCCOC(C)=O [(Z)-11-Tetradecenyl acetate]	> 90

Same assay, conditions: rat, gh3-tre-luc cells, AC50 (uM) modified / 1000, Tox21_110001=Tox21_110905; viability, 1 nM T3 present, 24 h

SMILES	CC50 at 24 h [µM]
C=C(C)[C@H]1CN[C@H](C(=O)O)[C@H]1CC(=O)O [Kainic acid]	> 50

Same assay, conditions: rat, gh3-tre-luc cells, AC50 (uM) modified / 1000, Tox21_110001=Tox21_202228; viability, 1 nM T3 present, 24 h

SMILES	CC50 at 24 h [µM]
CCCN(CCC)c1c([N+](=O)[O-])cc(C(C)C)cc1[N+](=O)[O-] [Isopropalin]	89.1

Same assay, conditions: rat, gh3-tre-luc cells, AC50 (uM) modified / 1000, Tox21_110001=Tox21_202319; viability, 1 nM T3 present, 24 h

SMILES	CC50 at 24 h [µM]
N#CC(Br)Br [Dibromoacetonitrile]	> 90

Same assay, conditions: rat, gh3-tre-luc cells, AC50 (uM) modified / 1000, Tox21_110001=Tox21_300422; viability, 1 nM T3 present, 24 h

SMILES	CC50 at 24 h [µM]
CCCN(CCC)c1c([N+](=O)[O-])cc(C(C)C)cc1[N+](=O)[O-] [Isopropalin]	45.3

Same assay, conditions: rat, gh3-tre-luc cells, AC50 (uM) modified / 1000, Tox21_110001=Tox21_301172; viability, 1 nM T3 present, 24 h

SMILES	CC50 at 24 h [µM]
CCOP(=O)(OCC)OP(=O)(OCC)OCC [Tetraethyl pyrophosphate]	> 90
